Measured values from US10597364B2, “Anthelmintic compounds, compositions and method of using thereof” (priority 2015, dated 2020).
Read-outs that look alike come from different tables or passages of the source.

How the values were obtained:
Haemonchus contortus = assay: Method A: Haemonchus contortus L1 larval development/motility screen in microtitre plate; format: cell-based; details: 96 h, read-out: motility inhibition
[1] = system: microfilaria of Dirofilaria immitis; assay: Method C: microfilaria of Dirofilaria immitis motility screen; format: cell-based; details: read-out: inhibition of the microfilaria's motility

| Structure (SMILES) | inhibition at 5 µM (Haemonchus contortus) [%] | inhibition at 5 ppm ([1]; 24 h) [%] | inhibition at 10 µM ([1]; 24 h) [%] | further results |
| --- | --- | --- | --- | --- |
| O=[N+]([O-])c1ccc(N[C@H]2CC[C@H](Oc3cc(N4CCN(C(=S)Nc5ccc(C(F)(F)F)cc5)CC4)ccn3)CC2)cc1C(F)(F)F [Compound 68, 4-[2-[(4-[[4-nitro-3-(trifluoromethyl)phenyl]amino]cyclohexyl)oxy]pyridin-4-yl]-N-[4-(trifluoromethyl)phenyl]piperazine-1-carbothioamide] | ≥ 90 | ≥ 90 | – | – |
| O=C(NC1CCCC1)N1CCN(c2ccnc(O[C@H]3CC[C@H](Nc4ccc([N+](=O)[O-])c(C(F)(F)F)c4)CC3)c2)CC1 [Compound 69] | ≥ 90 | – | ≥ 90 | – |
| CCOCCC(=O)N1CCN(c2cc(O[C@H]3CC[C@H](Nc4ccc([N+](=O)[O-])c(C(F)(F)F)c4)CC3)ccn2)CC1 [Compound 70] | ≥ 90 | – | ≥ 90 | – |
| O=C(CC(F)(F)F)N1CCN(c2cc(O[C@H]3CC[C@H](Nc4ccc([N+](=O)[O-])c(C(F)(F)F)c4)CC3)ccn2)CC1 [Compound 71] | ≥ 90 | – | ≥ 90 | – |
| COCCOCC(=O)N1CCN(c2cc(O[C@H]3CC[C@H](Nc4ccc([N+](=O)[O-])c(C(F)(F)F)c4)CC3)ccn2)CC1 [Compound 72] | ≥ 90 | – | ≥ 90 | – |
| COC(=O)N1CCN(c2cc(O[C@H]3CC[C@H](Nc4ccc([N+](=O)[O-])c(C(F)(F)F)c4)CC3)ccn2)CC1 [Compound 75] | ≥ 90 | – | – | inhibition at 10 µM ([1]; 10 μM, 24 hours): ≥ 90% |
| O=[N+]([O-])c1ccc(N[C@H]2CC[C@H](Oc3ccnc(N4CCN(C/C=C/c5ccc(C(F)(F)F)cc5)CC4)c3)CC2)cc1C(F)(F)F [Compound 76] | ≥ 90 | ≥ 90 | – | – |
| CCCN1CCN(c2cncc(O[C@H]3CC[C@H](Nc4ccc([N+](=O)[O-])c(C(F)(F)F)c4)CC3)c2)CC1 [Compound 77] | ≥ 90 | – | ≥ 90 | – |
| CCCN1CCN(c2cc(O[C@H]3CC[C@H](Nc4ccc([N+](=O)[O-])c(C(F)(F)F)c4)CC3)ccn2)CC1 [Compound 78] | ≥ 90 | – | – | inhibition at 10 µM ([1]; 10 μM, 24 hours): ≥ 90% |
| O=[N+]([O-])c1ccc(N[C@H]2CC[C@H](Oc3cncc(N4CCN(C(=S)NC5CCCC5)CC4)c3)CC2)cc1C(F)(F)F [Compound 79] | ≥ 90 | ≥ 90 | – | – |
| O=[N+]([O-])c1ccc(N[C@H]2CC[C@H](Oc3ccc(N4CCN(C/C=C/c5ccc(C(F)(F)F)cc5)CC4)nc3)CC2)cc1C(F)(F)F [Compound 80] | ≥ 90 | ≥ 90 | – | inhibition at 1 ppm ([1]; 24 h): ≥ 90% |
| O=[N+]([O-])c1ccc(N[C@H]2CC[C@H](Oc3cc(N4CCN(C(=S)NC5CCCC5)CC4)ccn3)CC2)cc1C(F)(F)F [Compound 81] | ≥ 90 | ≥ 90 | – | inhibition at 1 ppm ([1]; 24 h): ≥ 90% |
| O=C(NC1CCCC1)N1CCN(c2cncc(O[C@H]3CC[C@H](Nc4ccc([N+](=O)[O-])c(C(F)(F)F)c4)CC3)c2)CC1 [Compound 82] | ≥ 90 | – | ≥ 90 | – |
| CC(C)(C)OC(=O)N1CCN(c2ccc(O[C@H]3CC[C@H](Nc4ccc([N+](=O)[O-])c(C(F)(F)F)c4)CC3)cn2)CC1 [Compound 83] | ≥ 90 | ≥ 90 | – | – |
| CCCNC(=O)N1CCN(c2ccnc(O[C@H]3CC[C@H](Nc4ccc([N+](=O)[O-])c(C(F)(F)F)c4)CC3)c2)CC1 [Compound 85] | ≥ 90 | – | – | inhibition at 5 ppm ([1]; 5 ppm, 24 hours): ≥ 90% |
| O=[N+]([O-])c1ccc(N[C@H]2CC[C@H](Oc3ccnc(N4CCN(Cc5nc6cc(C(F)(F)F)ccc6s5)CC4)c3)CC2)cc1C(F)(F)F [Compound 86] | ≥ 90 | ≥ 90 | – | – |
| CCCN1CCN(c2ccnc(O[C@H]3CC[C@H](Nc4ccc([N+](=O)[O-])c(C(F)(F)F)c4)CC3)c2)CC1 [Compound 87] | ≥ 90 | – | ≥ 90 | – |
| O=[N+]([O-])c1ccc(N[C@H]2CC[C@H](Oc3cc(N4CCN(C(=S)Nc5ccc(F)cc5)CC4)ccn3)CC2)cc1C(F)(F)F [Compound 89] | ≥ 90 | ≥ 90 | – | – |
| CCCNC(=O)N1CCN(c2cncc(O[C@H]3CC[C@H](Nc4ccc([N+](=O)[O-])c(C(F)(F)F)c4)CC3)c2)CC1 [Compound 95] | ≥ 90 | – | – | inhibition at 10 µM ([1]; 10 μM, 24 hours): ≥ 90% |
| CCNC(=O)N1CCN(c2ccnc(O[C@H]3CC[C@H](Nc4ccc([N+](=O)[O-])c(C(F)(F)F)c4)CC3)c2)CC1 [Compound 96] | ≥ 90 | – | ≥ 90 | – |
| O=C(Nc1ccc(F)cc1)N1CCN(c2cncc(O[C@H]3CC[C@H](Nc4ccc([N+](=O)[O-])c(C(F)(F)F)c4)CC3)c2)CC1 [Compound 106] | ≥ 90 | – | – | inhibition at 10 µM ([1]; 10 μM, 24 hours): ≥ 90% |
| N#Cc1ccc(N[C@H]2CC[C@H](Oc3ccnc(N4CCN(C(=O)CC5CCCC5)CC4)c3)CC2)cc1C(F)(F)F [Compound 177] | ≥ 90 | – | ≥ 90 | – |
| N#Cc1ccc(N[C@H]2CC[C@H](Oc3cncc(N4CCN(Cc5ccc(C(F)(F)F)cc5)CC4)c3)CC2)cc1C(F)(F)F [Compound 181] | ≥ 90 | – | ≥ 90 | – |
